SMILES strings stand for the structures.

For the assay, the target named is Ec YeaWX lysate (Escherichia coli (strain K12), UniProt P0ABR7). Description: Inhibition of formation of TMA from carnitine in Ec YeaWX lysate (d9-carnitine to d9-TMA, LC-MS/MS). The note with it: conversion of carnitine to TMA; Ec YeaWX lysate 2.0 mg/mL protein, 250 μM NADPH, 50 μM d9-carnitine chloride, 37° C., two hours; read-out: TMA Inhibition (IC50, mol/L). The format is biochemical. From the text: EXAMPLE 3 provides an exemplary assay for identifying and characterizing compounds from Formula (I), or Formula (II), that inhibit the formation of TMA from carnitine.
Ec YeaWX lysate, sequence (P0ABR7 whole entry): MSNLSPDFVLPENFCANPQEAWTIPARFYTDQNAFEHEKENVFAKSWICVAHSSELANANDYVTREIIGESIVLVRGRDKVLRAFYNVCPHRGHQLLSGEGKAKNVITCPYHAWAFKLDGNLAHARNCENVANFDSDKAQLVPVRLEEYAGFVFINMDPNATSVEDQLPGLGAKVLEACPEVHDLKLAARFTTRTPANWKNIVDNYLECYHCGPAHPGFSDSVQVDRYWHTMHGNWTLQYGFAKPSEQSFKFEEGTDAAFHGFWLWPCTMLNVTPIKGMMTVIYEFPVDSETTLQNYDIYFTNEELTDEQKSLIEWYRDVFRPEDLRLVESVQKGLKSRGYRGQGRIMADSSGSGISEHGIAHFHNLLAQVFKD
Escherichia coli BL21*DE3::pET30a-Ec yeaWX #1 (Ec YeaWX) strain was generated as described below. The contiguous Escherichia coli coding sequence yeaW (equivalent to uniprot ID P0ABR7.1 (YeaW) (SEQ ID NO: 2)) and yeaX (equivalent to uniprot ID P76254.1 (YeaX) (SEQ ID NO: 3)) were PCR amplified from Escherichia coli strain K-12 substr. BW25113 genomic DNA. PCR primers (YeaW_Nde I_fwd2-SEQ ID NO: 4; YeaX_rev2-SEQ ID NO: 5) were designed to create a 5′ NdeI restriction site including the ATG start codon of yeaW and create a PstI restriction site just 3′ of the yeaX TAG stop codon.
The amplicon was restricted and cloned into the NdeI and PstI sites of the plasmid pET30a downstream of the inducible T7 promoter. A blast search of the resulting cloned amplicon DNA sequence (SEQ ID NO: 1) corresponded to nucleotide range 1884665 to 1886810 of Escherichia coli str. K-12 substr. MG1655 (NCBI Accession #NC_000913). The construct was transformed and grown in E. coli BL21(DE3) and the recombinant yeaWX overexpressed by addition of isopropyl β-D-1-thiogalactopyranoside (IPTG).
The bacteria were grown aerobically in 50 mL LB broth (Difco #244620; 10 g/L Tryptone, 5 g/L yeast extract, 10 g/L NaCl, 50 μg/mL kanamycin), in a 500 mL Erlenmeyer flask. The cultures were inoculated from glycerol stock of BL21*DE3::pET30a-Ec yeaWX #1 strain. Strains were cultured all day at 37° C. with 250 rpm shaking. Two 300 mL Minimal M9 Medium (6 g/L Na2HPO4, 3 g/L KH2PO4, 0.5 g/L NaCl, 1 g/L NH4Cl, 0.1 mM CaCl2, 1 mM MgSO4, 0.2% Dextrose, 1 mg/L Thiamine, 50 μg/mL kanamycin), in 1 L Erlenmeyer flasks, were inoculated with 5 mL of the LB broth day culture and cultured overnight at 37° C. with 250 rpm shaking. The overnight cultures were used to inoculate twelve 1 L cultures of Minimal M9 media in 2.8 L fluted Erlenmeyer flasks to an OD 600 nm of 0.05 (typically approximately 28 mLs), which were grown at 37° C. with 250 rpm shaking until an OD600 of approximately 0.4 was reached. Expression of YeaWX was induced with 1 mM IPTG and the induced cultures were further grown overnight at 37° C. with 250 rpm shaking. The biomass was pelleted by centrifugation at 6000×g for 12 minutes at 4° C. The cell pellet was suspended in 240 mL of ice-cold 1× Phosphate Buffered Saline (Ca^2+ and Mg^2+ free). Ninety micrograms of Lysozyme (Sigma #L6876 Lot #SLBG8654V; Sigma-Aldrich Corp., St. Louis, Mo.) was added and incubated with 320 rpm shaking for 30 minutes at 4° C. Lysis was achieved via French press with a 4° C. prechilled 1″ diameter chamber at 1000 psi (high ratio; internal PSI equivalent ˜16000). The lysate was centrifuged at 6,000×g for 12 minutes at 4° C. to pellet extra debris. Glycerol was added to the centrifuged lysate supernatant at a final concentration of 15% A protein concentration of the centrifuged lysate supernatant was determined by a BCA Protein Assay Kit (Pierce #23225), typically in the 2.5 to 4.5 mg/ml range. The centrifuged Ec YeaWX lysate supernatant was aliquoted into 20 mL volumes and stored frozen at −80° C.
Ec YeaWX lysate was diluted to 2.0 mg/mL protein with 1× Dulbecco's phosphate buffered saline (DPBS) plus 15% glycerol. Nicotinamide adenine dinucleotide phosphate (NADPH) was added to 250 μM. […]
Take `CCOC(=O)C(=O)C[N+](C)(C)CCN=C=S` [Compound 5, N-(Ethoxypropyl-2,3-dione)-2-isothiocyanato-N,N-dimethylethan-1-aminium bromide]: the IC50 was 0.00551 mol/L.
With `CCOC(=O)C(=O)C[N+](C)(C)CCCN=C=S` [Compound 6] the figure was 0.0002 mol/L.
On to `CC[N+](C)(CC)CCCN=C=S` [Compound 2, 3-Isothiocyanato-N,N-diethyl-N-methylpropanaminium iodide], for which the IC50 was 0.0002 mol/L.
For the compound `CC[N+](CC)(CC#N)CCCN=C=S` [Compound 9, N-Cyanomethyl-3-isothiocyanato-N,N-diethylpropan-1-aminium bromide], the IC50 was 0.0006 mol/L.
With `CC[N+](CC)(CCBr)CCCN=C=S` [Compound 7, N-(2-Bromoethyl)-3-isothiocyanato-N,N-diethylpropan-1-aminium triflate] the figure was 0.00017 mol/L.

These data come from patent US10213407B2, “Compounds and methods for inhibiting production of trimethylamine” (The Procter & Gamble Company, priority 2015, dated 2019).
